Source: US20240269139A1, “COMPOUNDS FOR TARGETED PROTEIN DEGRADATION OF KINASES” (DANA-FARBER CANCER INSTITUTE, INC., priority 2020, published 2024)
Read-outs that look alike come from different tables or passages of the source.

Key:
Format in all cases: cell-based
[1] = biological target: protein kinases (human kinome) (Homo sapiens, UniProt P52429); settings: protein DGKE (P52429); experiment wp056; down
[2] = biological target: protein kinases (human kinome) (Homo sapiens, UniProt Q8N4C8); settings: experiment wp107
[3] = biological target: T1, protein kinases (human kinome) (Homo sapiens, UniProt Q13043); settings: for logFC: STK4 (Q13043-1)
T1 sequence (Q13043 1-487): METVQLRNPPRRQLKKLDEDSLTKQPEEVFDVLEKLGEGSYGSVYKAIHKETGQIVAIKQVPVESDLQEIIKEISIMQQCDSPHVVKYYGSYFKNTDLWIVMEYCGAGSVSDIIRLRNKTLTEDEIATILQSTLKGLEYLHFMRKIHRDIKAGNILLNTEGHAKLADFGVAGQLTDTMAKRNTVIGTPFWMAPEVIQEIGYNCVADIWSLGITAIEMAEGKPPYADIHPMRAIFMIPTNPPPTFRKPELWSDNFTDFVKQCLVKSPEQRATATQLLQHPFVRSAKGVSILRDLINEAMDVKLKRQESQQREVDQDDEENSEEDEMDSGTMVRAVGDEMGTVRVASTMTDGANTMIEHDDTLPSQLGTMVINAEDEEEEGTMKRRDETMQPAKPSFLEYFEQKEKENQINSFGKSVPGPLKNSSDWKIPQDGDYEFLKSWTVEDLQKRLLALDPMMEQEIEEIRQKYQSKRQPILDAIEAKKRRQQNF

[4] = biological target: protein kinases (human kinome) (Homo sapiens, UniProt P51957); settings: experiment wp146
[5] = biological target: protein kinases (human kinome) (Homo sapiens, UniProt Q6JQN1); settings: ACAD10 (Q6JQN1); experiment wp056
[6] = biological target: protein kinases (human kinome) (Homo sapiens, UniProt Q96S53); settings: experiment wp147, 4 uM
[7] = biological target: protein kinases (human kinome) (Homo sapiens, UniProt Q15759); settings: for logFC MAPK11 (Q15759): direction of change down; for logFC: MAPK11 (Q15759)
[8] = biological target: protein kinases (human kinome) (Homo sapiens, UniProt Q99640); settings: experiment wp131
[9] = biological target: protein kinases (human kinome) (Homo sapiens, UniProt Q15120); settings: experiment wp160, 1 hr
protein kinases (human kinome) (Homo sapiens, UniProt Q15120), sequence (Q15120 whole entry): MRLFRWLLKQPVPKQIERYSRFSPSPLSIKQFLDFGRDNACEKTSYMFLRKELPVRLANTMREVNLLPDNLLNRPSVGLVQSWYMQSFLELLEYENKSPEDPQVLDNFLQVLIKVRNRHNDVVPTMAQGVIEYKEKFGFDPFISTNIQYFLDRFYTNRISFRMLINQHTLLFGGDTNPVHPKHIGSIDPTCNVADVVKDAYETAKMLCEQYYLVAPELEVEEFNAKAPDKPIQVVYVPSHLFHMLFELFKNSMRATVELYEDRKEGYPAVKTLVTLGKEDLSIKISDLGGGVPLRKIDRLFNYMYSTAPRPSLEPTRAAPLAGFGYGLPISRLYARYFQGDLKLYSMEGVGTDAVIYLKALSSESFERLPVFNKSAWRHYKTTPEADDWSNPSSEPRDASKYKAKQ

protein kinases (human kinome) (Homo sapiens, UniProt Q15759), sequence (Q15759 whole entry): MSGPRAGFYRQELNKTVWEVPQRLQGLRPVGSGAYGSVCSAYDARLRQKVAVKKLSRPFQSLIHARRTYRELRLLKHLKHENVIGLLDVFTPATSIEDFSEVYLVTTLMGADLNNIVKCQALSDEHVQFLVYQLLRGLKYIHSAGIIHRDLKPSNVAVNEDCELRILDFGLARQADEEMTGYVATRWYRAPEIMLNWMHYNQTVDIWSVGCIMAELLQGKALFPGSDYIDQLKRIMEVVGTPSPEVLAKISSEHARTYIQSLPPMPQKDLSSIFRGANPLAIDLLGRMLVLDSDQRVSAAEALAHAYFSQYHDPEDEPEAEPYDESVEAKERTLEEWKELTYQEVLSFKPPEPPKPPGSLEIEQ
protein kinases (human kinome) (Homo sapiens, UniProt P51957), sequence (P51957 whole entry): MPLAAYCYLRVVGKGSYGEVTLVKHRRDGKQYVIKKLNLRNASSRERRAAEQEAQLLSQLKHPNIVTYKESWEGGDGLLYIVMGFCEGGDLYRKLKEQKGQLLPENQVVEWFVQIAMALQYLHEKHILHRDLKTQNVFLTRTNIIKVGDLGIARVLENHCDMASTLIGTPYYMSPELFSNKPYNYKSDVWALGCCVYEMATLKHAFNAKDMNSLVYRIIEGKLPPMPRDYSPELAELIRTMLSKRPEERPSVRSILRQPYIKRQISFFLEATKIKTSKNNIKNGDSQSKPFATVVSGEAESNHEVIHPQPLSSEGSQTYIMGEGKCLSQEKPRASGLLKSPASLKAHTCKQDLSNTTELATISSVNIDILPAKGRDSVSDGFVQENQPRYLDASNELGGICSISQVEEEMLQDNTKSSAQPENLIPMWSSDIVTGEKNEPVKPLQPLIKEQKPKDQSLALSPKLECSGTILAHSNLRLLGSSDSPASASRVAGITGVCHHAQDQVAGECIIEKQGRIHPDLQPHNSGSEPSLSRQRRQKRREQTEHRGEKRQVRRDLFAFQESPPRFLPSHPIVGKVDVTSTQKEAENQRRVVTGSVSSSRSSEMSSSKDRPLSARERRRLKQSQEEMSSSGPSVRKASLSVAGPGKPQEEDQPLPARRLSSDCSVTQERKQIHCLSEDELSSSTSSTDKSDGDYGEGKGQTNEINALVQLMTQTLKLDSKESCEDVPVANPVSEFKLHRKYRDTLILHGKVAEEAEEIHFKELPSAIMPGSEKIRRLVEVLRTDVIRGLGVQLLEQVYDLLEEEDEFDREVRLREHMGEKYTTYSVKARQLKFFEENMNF
protein kinases (human kinome) (Homo sapiens, UniProt Q8N4C8), sequence (Q8N4C8 whole entry): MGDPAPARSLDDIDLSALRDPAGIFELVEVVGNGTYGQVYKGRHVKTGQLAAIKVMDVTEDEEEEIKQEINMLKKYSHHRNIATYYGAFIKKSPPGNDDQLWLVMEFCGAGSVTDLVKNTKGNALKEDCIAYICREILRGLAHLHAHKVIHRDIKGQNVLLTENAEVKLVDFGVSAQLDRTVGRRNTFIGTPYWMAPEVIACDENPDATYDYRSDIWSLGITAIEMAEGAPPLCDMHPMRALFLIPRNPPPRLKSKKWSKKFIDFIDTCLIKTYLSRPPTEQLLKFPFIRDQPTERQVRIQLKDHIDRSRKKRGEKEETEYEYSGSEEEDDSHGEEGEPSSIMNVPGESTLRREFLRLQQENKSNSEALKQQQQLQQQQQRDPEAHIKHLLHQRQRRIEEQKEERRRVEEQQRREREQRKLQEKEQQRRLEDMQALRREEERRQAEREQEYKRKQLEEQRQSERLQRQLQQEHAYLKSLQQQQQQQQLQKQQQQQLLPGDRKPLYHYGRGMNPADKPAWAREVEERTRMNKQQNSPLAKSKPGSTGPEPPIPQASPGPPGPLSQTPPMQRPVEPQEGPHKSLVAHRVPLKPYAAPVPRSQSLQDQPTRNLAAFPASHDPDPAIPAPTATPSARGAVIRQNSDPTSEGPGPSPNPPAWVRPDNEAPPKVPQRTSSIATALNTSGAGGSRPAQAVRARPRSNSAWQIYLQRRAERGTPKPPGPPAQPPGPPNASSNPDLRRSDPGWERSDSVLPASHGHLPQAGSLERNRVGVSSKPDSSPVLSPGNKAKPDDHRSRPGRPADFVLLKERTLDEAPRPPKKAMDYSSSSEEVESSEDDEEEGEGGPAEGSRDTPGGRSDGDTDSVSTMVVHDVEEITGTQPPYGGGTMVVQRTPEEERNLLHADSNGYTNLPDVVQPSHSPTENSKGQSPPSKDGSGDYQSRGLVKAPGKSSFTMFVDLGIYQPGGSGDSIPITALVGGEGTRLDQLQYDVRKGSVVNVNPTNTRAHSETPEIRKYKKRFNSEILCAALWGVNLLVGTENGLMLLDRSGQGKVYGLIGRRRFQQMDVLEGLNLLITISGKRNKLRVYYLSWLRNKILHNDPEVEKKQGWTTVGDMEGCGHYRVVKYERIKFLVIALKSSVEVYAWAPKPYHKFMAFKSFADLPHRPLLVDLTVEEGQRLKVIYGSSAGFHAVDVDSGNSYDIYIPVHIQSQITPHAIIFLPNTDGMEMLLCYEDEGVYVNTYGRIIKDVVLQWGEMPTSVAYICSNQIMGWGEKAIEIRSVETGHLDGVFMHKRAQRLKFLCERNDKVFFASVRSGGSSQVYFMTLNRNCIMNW
protein kinases (human kinome) (Homo sapiens, UniProt Q96S53), sequence (Q96S53 whole entry): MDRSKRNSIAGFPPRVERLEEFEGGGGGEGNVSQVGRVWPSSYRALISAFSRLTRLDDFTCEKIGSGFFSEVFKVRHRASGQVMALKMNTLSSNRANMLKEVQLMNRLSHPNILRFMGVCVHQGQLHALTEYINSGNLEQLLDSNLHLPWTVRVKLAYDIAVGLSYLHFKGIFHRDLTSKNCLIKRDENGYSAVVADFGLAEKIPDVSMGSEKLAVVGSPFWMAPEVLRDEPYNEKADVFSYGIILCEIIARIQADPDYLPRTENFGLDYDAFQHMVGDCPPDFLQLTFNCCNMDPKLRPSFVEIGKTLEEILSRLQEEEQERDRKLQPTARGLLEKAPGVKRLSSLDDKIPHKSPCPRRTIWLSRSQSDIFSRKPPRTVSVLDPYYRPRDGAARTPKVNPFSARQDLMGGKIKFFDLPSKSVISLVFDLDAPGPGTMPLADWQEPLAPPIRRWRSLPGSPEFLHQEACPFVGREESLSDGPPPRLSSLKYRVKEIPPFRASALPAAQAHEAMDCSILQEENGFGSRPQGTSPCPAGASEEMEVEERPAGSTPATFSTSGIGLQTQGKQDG
protein kinases (human kinome) (Homo sapiens, UniProt Q99640), sequence (Q99640 whole entry): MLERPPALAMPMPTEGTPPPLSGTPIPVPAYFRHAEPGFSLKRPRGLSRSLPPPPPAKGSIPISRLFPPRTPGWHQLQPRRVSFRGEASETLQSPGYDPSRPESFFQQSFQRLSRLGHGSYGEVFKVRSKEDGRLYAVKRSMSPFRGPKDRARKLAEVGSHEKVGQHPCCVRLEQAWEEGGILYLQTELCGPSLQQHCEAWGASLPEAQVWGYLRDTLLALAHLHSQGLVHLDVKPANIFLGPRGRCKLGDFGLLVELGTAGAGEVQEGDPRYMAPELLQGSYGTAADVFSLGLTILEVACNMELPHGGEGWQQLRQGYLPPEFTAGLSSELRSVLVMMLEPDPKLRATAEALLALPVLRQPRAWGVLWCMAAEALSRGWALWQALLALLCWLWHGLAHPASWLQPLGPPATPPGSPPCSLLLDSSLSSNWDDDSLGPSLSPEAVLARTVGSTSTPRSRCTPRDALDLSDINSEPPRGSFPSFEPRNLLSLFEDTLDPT
protein kinases (human kinome) (Homo sapiens, UniProt Q6JQN1), sequence (Q6JQN1 whole entry): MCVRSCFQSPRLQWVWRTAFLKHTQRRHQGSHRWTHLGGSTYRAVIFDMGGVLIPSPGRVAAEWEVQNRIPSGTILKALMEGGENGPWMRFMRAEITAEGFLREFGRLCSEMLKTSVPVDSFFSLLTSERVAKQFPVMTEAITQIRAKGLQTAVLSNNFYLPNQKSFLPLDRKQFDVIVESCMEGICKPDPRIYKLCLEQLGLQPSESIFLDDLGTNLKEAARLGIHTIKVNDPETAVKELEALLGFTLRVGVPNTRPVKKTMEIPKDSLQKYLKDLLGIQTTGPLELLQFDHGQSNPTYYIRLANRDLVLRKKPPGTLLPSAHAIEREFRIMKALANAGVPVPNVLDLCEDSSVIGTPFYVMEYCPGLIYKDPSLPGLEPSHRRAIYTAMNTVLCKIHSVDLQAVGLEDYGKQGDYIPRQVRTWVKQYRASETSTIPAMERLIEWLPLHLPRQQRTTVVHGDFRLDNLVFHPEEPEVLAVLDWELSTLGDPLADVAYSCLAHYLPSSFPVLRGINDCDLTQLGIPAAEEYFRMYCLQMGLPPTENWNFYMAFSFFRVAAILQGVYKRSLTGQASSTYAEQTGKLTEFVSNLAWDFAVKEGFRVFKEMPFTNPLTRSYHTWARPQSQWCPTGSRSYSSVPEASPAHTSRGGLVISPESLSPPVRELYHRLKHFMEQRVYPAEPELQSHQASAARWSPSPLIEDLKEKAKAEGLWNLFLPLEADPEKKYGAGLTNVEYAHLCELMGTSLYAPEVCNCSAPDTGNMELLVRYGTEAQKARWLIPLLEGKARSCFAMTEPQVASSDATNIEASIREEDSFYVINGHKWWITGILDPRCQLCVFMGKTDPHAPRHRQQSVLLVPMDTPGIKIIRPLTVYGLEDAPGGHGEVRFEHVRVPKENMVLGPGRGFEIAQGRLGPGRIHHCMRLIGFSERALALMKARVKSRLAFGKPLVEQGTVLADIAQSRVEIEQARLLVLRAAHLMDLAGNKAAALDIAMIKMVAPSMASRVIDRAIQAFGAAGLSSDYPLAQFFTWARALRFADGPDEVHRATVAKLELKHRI

## C=CCn1c(=O)c2cnc(Nc3ccc(N4CCN(CCCNc5cccc6c5C(=O)N(C5CCC(=O)NC5=O)C6=O)CC4)cc3)nc2n1-c1cccc(C(C)(C)O)n1 (stereo not drawn) [ZNL.02.096]
[1]
  logFC DGKE: −0.3512

## Nc1ncc(-c2ccc(S(=O)(=O)N(CCCNC(=O)CCOCCOCCOCCOCCOCCNc3cccc4c3C(=O)N(C3CCC(=O)NC3=O)C4=O)C3CC3)cc2)cc1-c1ccc2c(c1)CCNC2=O (stereo not drawn) [WH.10417.099]
[2]; direction of change down
  logFC MINK1 (Q8N4C8-1): −0.5661
[2]; protein MINK1 (Q8N408-1), down
  logFC MINK1: −0.5661
[3]; Experiment wp103
  logFC of STK4 (Q13043-1): −0.7387
[3]; Experiment wp107
  logFC of STK4 (Q13043-1): −0.7188
[3]; Experiment wp172
  logFC of STK4 (Q13043-1): −0.5983
[3]; experiment wp056
  logFC: −0.7157
  logFC of STK4 (Q13043-1): −0.7157
[3]; experiment wp103
  logFC: −0.7387
[3]; experiment wp107
  logFC: −0.7188
[3]; experiment wp172
  logFC: −0.5983

## Cc1cc(Nc2ncc(Br)c(Nc3cccc(F)c3C(N)=O)n2)ccc1S(=O)(=O)NCCOCCOCCOCCOCCNc1cccc2c1C(=O)N(C1CCC(=O)NC1=O)C2=O (stereo not drawn) [TMX.02.174]
[4]; direction of change down
  logFC NEK4 (P51957): −0.9508
[4]; protein NEK4 (P51957), down
  logFC NEK4: −0.9508

## Cc1ccc(C(=O)Nc2ccc(CN3CCN(CCCOCCOCCOCCNC(=O)COc4cccc5c4C(=O)N(C4CCC(=O)NC4=O)C5=O)CC3)c(C(F)(F)F)c2)cc1C#Cc1cnc2cccnn12 (stereo not drawn) [SB1.G.187]
[5]
  logFC: −0.3838

## CC(C)(C)c1nc(-c2cccc(NS(=O)(=O)c3c(F)cccc3F)c2F)c(-c2ccnc(NCCOCCNC(=O)CCOCCOCCNc3cccc4c3C(=O)N(C3CCC(=O)NC3=O)C4=O)n2)s1 (stereo not drawn) [DD.03.106]
[6]; direction of change down
  logFC TESK2 (Q96S53-1): −0.3831
[6]; protein TESK2 (Q96S53-1), down
  logFC TESK2: −0.3831

## Cc1ccc(NC(=O)c2cccc(C(F)(F)F)c2)cc1N1Cc2cnc(Nc3ccc(N4CCN(Cc5cn(CCCCCOc6cccc7c6C(=O)N(C6CCC(=O)NC6=O)C7=O)nn5)CC4)nc3)nc2N(C)C1=O (stereo not drawn) [DB0646, N-(3-(7-((6-(4-((1-(5-((2-(2,6-Dioxopiperidin-3-yl)-1,3-dioxoisoindolin-4-yl)oxy)pentyl)-1H-1,2,3-triazol-4-yl)methyl)piperazin-1-v)pyridin-3-yl)amino)-1-methyl-2-oxo-1,4-dihydropyrimido[4,5-d]pyrimidin-3(2H)-yl)-4-methylphenyl)-3-(trifluoromethyl)benzamide]
[7]; Experiment wp105
  logFC MAPK11 (Q15759): −0.3998
[7]; Experiment wp114
  logFC MAPK11 (Q15759): −0.6209
[7]; experiment wp105
  logFC: −0.3998
[7]; experiment wp114
  logFC: −0.6209

## Cn1c(=O)c(-c2c(Cl)cccc2Cl)cc2cnc(Nc3ccc(OCCNC(=O)CCCCCCNC(=O)COc4cccc5c4C(=O)N(C4CCC(=O)NC4=O)C5=O)cc3)nc21 (stereo not drawn) [SB1.G.192.1]
[8]; direction of change down
  logFC PKMYT1 (Q99640): −0.7301
[8]; protein PKMYT1 (Q99640), down
  logFC PKMYT1: −0.7301

## CC(C)S(=O)(=O)c1ccccc1Nc1nc(Nc2ccc(N3CCN(CCOCCNC(=O)CNc4cccc5c4C(=O)N(C4CCC(=O)NC4=O)C5=O)CC3)cc2)ncc1Cl (stereo not drawn) [SK.3.91]
[9]
  logFC PDK3 (Q15120-1): −0.9801
  logFC of PDK3 (Q15120-1): −0.9801
